From doi:10.1101/2020.06.11.145995v1 (biorxiv, 2020)
Where two headings read alike, the source gives them in different places.

Experiments:
Assay in all cases: biochemical
NEK11 = NEK11 (Homo sapiens, UniProt Q8NG66)
ZAK = ZAK (Homo sapiens, UniProt Q9NYL2)
SNARK = SNARK (Homo sapiens, UniProt Q9H093)
TGFBR1 = TGFBR1 (Homo sapiens, UniProt P36897)
PIK3CA(E542K) = PIK3CA(E542K) (Homo sapiens, UniProt P42336, E542K)
TNK2 = TNK2 (Homo sapiens, UniProt Q07912)
PIK3CA(M1043I) = target: PIK3CA(M1043I (Homo sapiens, UniProt P42336, M1043I))
NEK2 = NEK2 (Homo sapiens, UniProt P51955)
TEC = TEC (Homo sapiens, UniProt P42680)
RIPK5 = RIPK5 (Homo sapiens, UniProt Q6XUX3)
TRKA = TRKA (Homo sapiens, UniProt P04629)
TRKA, sequence (P04629 whole entry): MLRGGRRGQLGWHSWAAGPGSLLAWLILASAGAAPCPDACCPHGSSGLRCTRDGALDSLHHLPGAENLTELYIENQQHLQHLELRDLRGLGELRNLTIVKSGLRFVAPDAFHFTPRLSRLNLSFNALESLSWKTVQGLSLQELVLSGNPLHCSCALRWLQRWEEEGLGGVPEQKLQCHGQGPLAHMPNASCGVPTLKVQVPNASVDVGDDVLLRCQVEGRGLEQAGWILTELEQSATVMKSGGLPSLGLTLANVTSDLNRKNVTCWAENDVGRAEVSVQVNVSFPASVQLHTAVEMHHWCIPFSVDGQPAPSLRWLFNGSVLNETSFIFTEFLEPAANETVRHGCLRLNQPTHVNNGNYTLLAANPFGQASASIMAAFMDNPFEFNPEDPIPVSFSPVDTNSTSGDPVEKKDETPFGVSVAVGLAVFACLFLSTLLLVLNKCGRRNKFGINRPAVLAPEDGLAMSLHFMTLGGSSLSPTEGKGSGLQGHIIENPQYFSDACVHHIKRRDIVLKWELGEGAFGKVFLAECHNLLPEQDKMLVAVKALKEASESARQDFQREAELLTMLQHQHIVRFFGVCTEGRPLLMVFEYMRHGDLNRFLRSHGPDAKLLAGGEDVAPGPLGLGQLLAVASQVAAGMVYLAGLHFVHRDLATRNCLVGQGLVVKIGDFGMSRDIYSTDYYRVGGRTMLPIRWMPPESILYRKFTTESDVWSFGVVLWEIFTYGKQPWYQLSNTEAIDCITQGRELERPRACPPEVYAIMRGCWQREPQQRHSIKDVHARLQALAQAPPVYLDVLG

RIOK3 = RIOK3 (Homo sapiens, UniProt O14730)
NLK = NLK (Homo sapiens, UniProt Q9UBE8)
RPS6KA5 = RPS6KA5 (Homo sapiens, UniProt O75582)
RPS6KA5, sequence (O75582 whole entry): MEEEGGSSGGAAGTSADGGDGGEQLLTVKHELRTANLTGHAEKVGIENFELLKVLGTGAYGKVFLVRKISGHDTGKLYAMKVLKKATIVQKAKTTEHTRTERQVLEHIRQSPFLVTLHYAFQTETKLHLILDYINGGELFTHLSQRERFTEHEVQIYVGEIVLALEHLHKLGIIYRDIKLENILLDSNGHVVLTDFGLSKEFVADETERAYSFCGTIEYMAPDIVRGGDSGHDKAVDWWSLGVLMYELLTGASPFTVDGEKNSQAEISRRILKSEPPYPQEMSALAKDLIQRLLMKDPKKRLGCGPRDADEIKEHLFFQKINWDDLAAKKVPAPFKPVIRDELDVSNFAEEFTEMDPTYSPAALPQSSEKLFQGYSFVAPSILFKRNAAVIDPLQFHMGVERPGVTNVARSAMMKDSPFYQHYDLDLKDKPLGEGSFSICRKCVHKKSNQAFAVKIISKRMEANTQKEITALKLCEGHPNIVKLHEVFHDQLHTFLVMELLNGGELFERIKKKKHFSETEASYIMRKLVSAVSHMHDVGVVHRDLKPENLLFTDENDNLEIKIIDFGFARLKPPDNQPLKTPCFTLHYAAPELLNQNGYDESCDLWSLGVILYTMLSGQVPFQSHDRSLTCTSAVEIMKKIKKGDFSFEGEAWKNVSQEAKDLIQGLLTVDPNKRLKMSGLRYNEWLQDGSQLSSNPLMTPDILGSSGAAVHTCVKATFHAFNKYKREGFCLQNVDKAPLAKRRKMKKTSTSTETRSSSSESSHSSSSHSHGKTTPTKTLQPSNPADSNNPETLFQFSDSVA

TNK1 = TNK1 (Homo sapiens, UniProt Q13470)
RAF1 = RAF1 (Homo sapiens, UniProt P04049)
STK16 = STK16 (Homo sapiens, UniProt O75716)
PRKG2 = PRKG2 (Homo sapiens, UniProt Q13237)
PRKG2, sequence (Q13237 whole entry): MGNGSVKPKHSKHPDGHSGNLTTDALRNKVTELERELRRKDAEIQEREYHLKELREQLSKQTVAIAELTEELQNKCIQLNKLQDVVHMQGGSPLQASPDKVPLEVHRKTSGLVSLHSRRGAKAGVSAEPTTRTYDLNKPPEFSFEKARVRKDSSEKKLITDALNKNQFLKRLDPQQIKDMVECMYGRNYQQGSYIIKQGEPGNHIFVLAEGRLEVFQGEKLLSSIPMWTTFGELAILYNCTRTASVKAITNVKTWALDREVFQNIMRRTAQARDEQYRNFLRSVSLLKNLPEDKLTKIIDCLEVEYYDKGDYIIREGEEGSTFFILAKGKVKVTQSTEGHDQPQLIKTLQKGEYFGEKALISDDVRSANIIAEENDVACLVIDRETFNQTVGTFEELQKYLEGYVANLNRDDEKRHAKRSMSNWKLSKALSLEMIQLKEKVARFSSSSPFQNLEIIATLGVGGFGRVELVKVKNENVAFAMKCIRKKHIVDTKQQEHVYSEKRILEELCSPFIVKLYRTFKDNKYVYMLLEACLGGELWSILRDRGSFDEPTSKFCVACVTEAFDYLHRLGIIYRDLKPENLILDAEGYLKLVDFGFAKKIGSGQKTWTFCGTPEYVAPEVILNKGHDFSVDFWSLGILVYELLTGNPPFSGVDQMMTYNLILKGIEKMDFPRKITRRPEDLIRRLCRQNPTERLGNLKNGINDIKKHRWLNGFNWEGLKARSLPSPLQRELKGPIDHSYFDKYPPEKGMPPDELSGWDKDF

STK35 = STK35 (Homo sapiens, UniProt Q8TDR2)
NDR1 = NDR1 (Homo sapiens, UniProt Q15208)
TYRO3 = TYRO3 (Homo sapiens, UniProt Q06418)
TYRO3, sequence (Q06418 whole entry): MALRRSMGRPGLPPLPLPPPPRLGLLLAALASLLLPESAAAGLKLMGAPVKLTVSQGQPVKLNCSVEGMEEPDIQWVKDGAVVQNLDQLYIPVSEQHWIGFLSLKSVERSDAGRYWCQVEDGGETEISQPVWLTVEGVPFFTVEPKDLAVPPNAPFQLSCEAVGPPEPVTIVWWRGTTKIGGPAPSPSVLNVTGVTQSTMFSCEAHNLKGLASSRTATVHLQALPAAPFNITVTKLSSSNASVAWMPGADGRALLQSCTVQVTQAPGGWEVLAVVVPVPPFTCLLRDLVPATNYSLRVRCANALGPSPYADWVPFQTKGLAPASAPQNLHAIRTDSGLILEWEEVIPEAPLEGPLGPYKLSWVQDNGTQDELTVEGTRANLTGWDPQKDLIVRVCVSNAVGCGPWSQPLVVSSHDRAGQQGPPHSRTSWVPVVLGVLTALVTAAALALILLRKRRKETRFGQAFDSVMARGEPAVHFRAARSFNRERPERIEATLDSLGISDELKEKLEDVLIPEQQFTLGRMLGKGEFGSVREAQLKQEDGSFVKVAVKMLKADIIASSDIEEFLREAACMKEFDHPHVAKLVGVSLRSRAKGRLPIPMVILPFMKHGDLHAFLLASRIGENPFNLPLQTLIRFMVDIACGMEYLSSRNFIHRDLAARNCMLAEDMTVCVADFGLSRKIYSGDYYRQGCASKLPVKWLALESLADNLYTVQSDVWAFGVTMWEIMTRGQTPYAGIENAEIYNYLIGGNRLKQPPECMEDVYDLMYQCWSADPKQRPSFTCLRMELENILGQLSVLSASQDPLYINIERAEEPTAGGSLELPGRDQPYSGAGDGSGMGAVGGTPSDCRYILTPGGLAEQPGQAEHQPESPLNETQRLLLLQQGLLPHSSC

TSSK1B = TSSK1B (Homo sapiens, UniProt Q9BXA7)
TYK2 = TYK2 (Homo sapiens, UniProt P29597)
TYK2, sequence (P29597 whole entry): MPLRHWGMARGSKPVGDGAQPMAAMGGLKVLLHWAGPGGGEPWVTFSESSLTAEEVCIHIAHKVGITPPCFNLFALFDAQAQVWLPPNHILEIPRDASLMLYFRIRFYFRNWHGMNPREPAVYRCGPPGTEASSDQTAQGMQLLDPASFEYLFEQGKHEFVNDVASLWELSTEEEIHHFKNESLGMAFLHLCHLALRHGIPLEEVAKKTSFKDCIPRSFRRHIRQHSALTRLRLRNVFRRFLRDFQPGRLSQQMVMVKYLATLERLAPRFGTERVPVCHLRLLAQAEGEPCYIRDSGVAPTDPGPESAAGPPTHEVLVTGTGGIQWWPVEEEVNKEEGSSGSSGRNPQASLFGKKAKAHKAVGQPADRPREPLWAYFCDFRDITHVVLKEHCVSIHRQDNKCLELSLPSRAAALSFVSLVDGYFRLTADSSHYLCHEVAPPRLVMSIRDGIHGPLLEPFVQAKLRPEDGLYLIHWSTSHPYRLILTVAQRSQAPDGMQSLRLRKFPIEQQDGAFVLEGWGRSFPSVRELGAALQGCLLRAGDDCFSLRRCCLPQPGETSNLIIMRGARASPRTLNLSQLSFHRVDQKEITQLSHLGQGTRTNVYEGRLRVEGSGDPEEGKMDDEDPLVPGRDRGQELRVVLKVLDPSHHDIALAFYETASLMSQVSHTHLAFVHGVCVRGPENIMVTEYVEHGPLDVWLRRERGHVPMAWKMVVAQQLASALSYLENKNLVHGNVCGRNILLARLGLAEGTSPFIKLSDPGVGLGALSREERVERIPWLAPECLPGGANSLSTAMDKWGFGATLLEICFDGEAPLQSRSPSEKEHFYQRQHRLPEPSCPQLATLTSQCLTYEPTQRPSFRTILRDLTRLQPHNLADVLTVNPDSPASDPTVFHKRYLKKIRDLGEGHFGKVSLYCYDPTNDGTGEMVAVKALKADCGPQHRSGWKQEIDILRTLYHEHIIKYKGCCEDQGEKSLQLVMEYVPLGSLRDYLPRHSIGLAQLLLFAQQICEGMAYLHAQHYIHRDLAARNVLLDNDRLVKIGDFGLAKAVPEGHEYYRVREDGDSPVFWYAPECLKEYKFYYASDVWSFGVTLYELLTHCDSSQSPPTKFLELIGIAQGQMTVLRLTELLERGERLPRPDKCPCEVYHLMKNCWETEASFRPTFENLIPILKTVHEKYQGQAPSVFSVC

p38-gamma = p38-gamma (Homo sapiens, UniProt P53778)
ROS1 = ROS1 (Homo sapiens, UniProt P08922)
TIE1 = TIE1 (Homo sapiens, UniProt P35590)
p38-delta = p38-delta (Homo sapiens, UniProt O15264)
NIM1 = NIM1 (Homo sapiens, UniProt Q8IY84)
NIM1, sequence (Q8IY84 whole entry): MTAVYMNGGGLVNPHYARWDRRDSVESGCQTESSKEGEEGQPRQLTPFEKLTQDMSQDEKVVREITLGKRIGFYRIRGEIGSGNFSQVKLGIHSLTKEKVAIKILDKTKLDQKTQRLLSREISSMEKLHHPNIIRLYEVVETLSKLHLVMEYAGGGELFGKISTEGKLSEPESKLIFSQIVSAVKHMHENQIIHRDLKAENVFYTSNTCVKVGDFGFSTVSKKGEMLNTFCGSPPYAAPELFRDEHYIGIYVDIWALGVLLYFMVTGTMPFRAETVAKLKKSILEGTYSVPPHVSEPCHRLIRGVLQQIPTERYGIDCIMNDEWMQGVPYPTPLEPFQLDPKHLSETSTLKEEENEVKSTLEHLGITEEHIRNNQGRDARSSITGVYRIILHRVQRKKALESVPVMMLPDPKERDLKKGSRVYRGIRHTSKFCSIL

SRPK2 = SRPK2 (Homo sapiens, UniProt P78362)
[1] = read-out: HYJ-2-002-1 (1μM) % control
[2] = read-out: CPT-1-70-1 (1μM) % control

CCN1CCN(Cc2ccc(NC(=O)c3ccc(C)c(CCc4cnc5[nH]ccc5c4OC)c3)cc2C(F)(F)F)CC1 [HYJ-2-002-1]
remaining activity at 1 µM (NEK11; [1]): 37% | remaining activity at 1 µM (ZAK; [1]): 3.9% | remaining activity at 1 µM (SNARK; [1]): 100% | remaining activity at 1 µM (TGFBR1; [1]): 100% | remaining activity at 1 µM (PIK3CA(E542K); [1]): 100% | remaining activity at 1 µM (TNK2; [1]): 4.1% | remaining activity at 1 µM (PIK3CA(M1043I); [1]): 100% | remaining activity at 1 µM (NEK2; [1]): 95% | remaining activity at 1 µM (TEC; [1]): 3.8% | remaining activity at 1 µM (RIPK5; [1]): 86% | remaining activity at 1 µM (TRKA; [1]): 6.6% | remaining activity at 1 µM (RIOK3; [1]): 100% | remaining activity at 1 µM (NLK; [1]): 28% | remaining activity at 1 µM (RPS6KA5; read-out: HYJ-2-002-1 (1μM) % control, Kin.Dom.1-N-terminal): 76% | remaining activity at 1 µM (RPS6KA5; read-out: HYJ-2-002-1 (1μM) % control, Kin.Dom.2-C-terminal): 100% | remaining activity at 1 µM (TNK1; [1]): 15% | remaining activity at 1 µM (RAF1; [1]): 8.9% | remaining activity at 1 µM (STK16; [1]): 80% | remaining activity at 1 µM (PRKG2; [1]): 100% | remaining activity at 1 µM (STK35; [1]): 91% | remaining activity at 1 µM (NDR1; [1]): 100% | remaining activity at 1 µM (TYRO3; [1]): 40% | remaining activity at 1 µM (TSSK1B; [1]): 100% | remaining activity at 1 µM (TYK2; read-out: HYJ-2-002-1 (1μM) % control, JH1 domain-catalytic): 53% | remaining activity at 1 µM (TYK2; read-out: HYJ-2-002-1 (1μM) % control, JH2 domain-pseudokinase): 100% | remaining activity at 1 µM (p38-gamma; [1]): 54% | remaining activity at 1 µM (ROS1; [1]): 100% | remaining activity at 1 µM (TIE1; [1]): 4.3% | remaining activity at 1 µM (p38-delta; [1]): 66% | remaining activity at 1 µM (NIM1; [1]): 100% | remaining activity at 1 µM (SRPK2; [1]): 100%

CN1CCN(c2ccc(Nc3nc(Oc4ccc(NC(=O)CCl)cc4)c4cc[nH]c4n3)cc2)CC1 [CPT1-70-1]
remaining activity at 1 µM (NEK11; [2]): 95% | remaining activity at 1 µM (ZAK; [2]): 71% | remaining activity at 1 µM (SNARK; [2]): 8.5% | remaining activity at 1 µM (TGFBR1; [2]): 100% | remaining activity at 1 µM (PIK3CA(E542K); [2]): 100% | remaining activity at 1 µM (TNK2; [2]): 100% | remaining activity at 1 µM (PIK3CA(M1043I); [2]): 100% | remaining activity at 1 µM (NEK2; [2]): 100% | remaining activity at 1 µM (TEC; [2]): 10% | remaining activity at 1 µM (RIPK5; [2]): 33% | remaining activity at 1 µM (TRKA; [2]): 30% | remaining activity at 1 µM (RIOK3; [2]): 53% | remaining activity at 1 µM (NLK; [2]): 100% | remaining activity at 1 µM (RPS6KA5; read-out: CPT-1-70-1 (1μM) % control, Kin.Dom.1-N-terminal): 100% | remaining activity at 1 µM (TNK1; [2]): 0.95% | remaining activity at 1 µM (RAF1; [2]): 86% | remaining activity at 1 µM (STK16; [2]): 0.75% | remaining activity at 1 µM (PRKG2; [2]): 100% | remaining activity at 1 µM (STK35; [2]): 100% | remaining activity at 1 µM (NDR1; [2]): 37% | remaining activity at 1 µM (TYRO3; [2]): 100% | remaining activity at 1 µM (TSSK1B; [2]): 25% | remaining activity at 1 µM (TYK2; read-out: CPT-1-70-1 (1μM) % control, JH1 domain-catalytic): 7.4% | remaining activity at 1 µM (TYK2; read-out: CPT-1-70-1 (1μM) % control, JH2 domain-pseudokinase): 68% | remaining activity at 1 µM (p38-gamma; [2]): 100% | remaining activity at 1 µM (ROS1; [2]): 100% | remaining activity at 1 µM (TIE1; [2]): 39% | remaining activity at 1 µM (p38-delta; [2]): 100% | remaining activity at 1 µM (NIM1; [2]): 100% | remaining activity at 1 µM (SRPK2; [2]): 98%
